Experiments:
IRAK4 [1] = target: T1, IRAK4 (Homo sapiens, UniProt Q9NWZ3); assay: IRAK4 Degradation Assay with Human Serum (Karpas299, HTRF/TR-FRET); type: cell-based; details: Karpas-299 in human serum, 24 hrs treatment; for DC50: read-out: IRAK4 degradtion with human serum assay DC50; for Dmax: read-out: IRAK4 degradtion with human serum assay Dmax (%)
T1 construct: endogenous in cells; host or cells: Karpas299
T1 sequence (Q9NWZ3 1-460): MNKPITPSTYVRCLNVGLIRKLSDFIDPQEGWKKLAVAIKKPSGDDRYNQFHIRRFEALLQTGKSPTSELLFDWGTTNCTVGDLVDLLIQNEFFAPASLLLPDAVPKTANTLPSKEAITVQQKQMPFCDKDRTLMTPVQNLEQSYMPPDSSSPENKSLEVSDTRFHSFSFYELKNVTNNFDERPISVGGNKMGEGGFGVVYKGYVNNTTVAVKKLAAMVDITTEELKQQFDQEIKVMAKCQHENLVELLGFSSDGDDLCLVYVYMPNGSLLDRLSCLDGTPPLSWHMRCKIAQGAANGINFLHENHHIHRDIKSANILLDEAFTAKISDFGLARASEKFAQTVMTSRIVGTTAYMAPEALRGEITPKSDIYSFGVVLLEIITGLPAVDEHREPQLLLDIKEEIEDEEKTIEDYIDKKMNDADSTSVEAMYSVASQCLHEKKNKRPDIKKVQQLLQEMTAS
How it was run: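 Remaining IRAK4 measured by TR-FRET immunoassay on lysates of Karpas299 cells exposed 24 h to compound dilution series in human serum AB. DC50 derived from a Hill-slope fit of % degradation versus concentration.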

IRAK4 [2] = target: T1, IRAK4; assay: IRAK4 Degradation Assay (Karpas299, HTRF/TR-FRET); type: cell-based; details: Karpas-299 cells, 24 h treatment; for Dmax: read-out: IRAK4 in Karpas-299 (24 h) Dmax (%); for DC50: read-out: IRAK4 in Karpas-299 (24 h) DC50
How it was run: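 Compound potency as DC50 (IC50) came from four-parameter fits of percent IRAK4 degradation. IRAK4 was measured by HTRF (665/620 nm) in lysates of Karpas299 cells seeded at 0.2 million per well. Cells had been treated with compound dilutions for 5 or 24 h.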

[3] = maximum percentage of degradation

| SMILES | DC50 (IRAK4 [1]) [nM] | Dmax (IRAK4 [1]) [%] | Dmax (IRAK4 [2]; [3]) [%] | DC50 (IRAK4 [2]) [nM] | IRAK4 degradtion with human serum assay Dmax (%) (IRAK4 [1]) | IRAK4 in Karpas-299 (24 h) Dmax (%) (IRAK4 [2]; [3]) |
| --- | --- | --- | --- | --- | --- | --- |
| CC(C)(O)c1cc2nn([C@H]3CC[C@H](N4CCN(CCc5cc(F)c([C@H]6CCC(=O)NC6=O)c(F)c5)CC4)CC3)cc2cc1NC(=O)c1ccc2cc(Br)cnn12 [Example 414, 3-bromo-N-(2-((1R,4r)-4-(4-(4-((R)-2,6-dioxopiperidin-3-yl)-3,5-difluorophenethyl)piperazin-1-yl)cyclohexyl)-6-(2-hydroxypropan-2-yl)-2H-indazol-5-yl)pyrrolo[1,2-b]pyridazine-7-carboxamide] | 439 | 97 | 96 | 1.5 |  |  |
| Cc1nc(C2CCC(=O)NC2=O)ccc1N1CCC(N2CCN(C34CCC(n5cc6cc(NC(=O)c7ccc8cc(C#N)cnn78)c(C(C)(C)O)cc6n5)(CC3)CC4)CC2)CC1 (stereo not drawn) [Example 416, 3-cyano-N-(2-(4-(4-(1-(6-(2,6-dioxopiperidin-3-yl)-2-methylpyridin-3-yl)piperidin-4-yl)piperazin-1-yl)bicyclo[2.2.2]octan-1-yl)-6-(2-hydroxypropan-2-yl)-2H-indazol-5-yl)pyrrolo[1,2-b]pyridazine-7-carboxamide] | 9.2 | 99 | 98 | 1.9 |  |  |
| Cc1nc(C2CCC(=O)NC2=O)ccc1N1CCC(N2CCN(C[C@H]3CC[C@H](n4cc5cc(NC(=O)c6ccc7cc(C#N)cnn67)c(C(C)(C)O)cc5n4)CC3)CC2)CC1 (stereo partly drawn) [Example 420, 3-cyano-N-(2-((1r,4r)-4-((4-(1-(6-(2,6-dioxopiperidin-3-yl)-2-methylpyridin-3-yl)piperidin-4-yl)piperazin-1-yl)methyl)cyclohexyl)-6-(2-hydroxypropan-2-yl)-2H-indazol-5-yl)pyrrolo[1,2-b]pyridazine-7-carboxamide] | 17 | 96 | 97 | 2.8 |  |  |
| CC(C)(O)c1cc2nn([C@H]3CC[C@H](CN4CCN(C5CN(c6cc(F)c([C@H]7CCC(=O)NC7=O)c(F)c6)C5)CC4)CC3)cc2cc1NC(=O)c1ccc2cc(C#N)cnn12 [Example 421, 3-cyano-N-(2-((1r,4r)-4-((4-(1-(4-((R)-2,6-dioxopiperidin-3-yl)-3,5-difluorophenyl)azetidin-3-yl)piperazin-1-yl)methyl)cyclohexyl)-6-(2-hydroxypropan-2-yl)-2H-indazol-5-yl)pyrrolo[1,2-b]pyridazine-7-carboxamide] | 15 | 97 | 95 | 0.8 |  |  |
| CC(=O)c1cc2nn([C@H]3CC[C@H](N4CCN(C5CN(c6cc(F)c([C@H]7CCC(=O)NC7=O)c(F)c6)C5)CC4)CC3)cc2cc1NC(=O)c1ccc2cc(C#N)cnn12 [Example 425, N-(6-acetyl-2-((1R,4r)-4-(4-(1-(4-((R)-2,6-dioxopiperidin-3-yl)-3,5-difluorophenyl)azetidin-3-yl)piperazin-1-yl)cyclohexyl)-2H-indazol-5-yl)-3-cyanopyrrolo[1,2-b]pyridazine-7-carboxamide] | 19 | 94 | 98 | 0.6 |  |  |
| Cc1nc(C2CCC(=O)NC2=O)ccc1N1CC(N2CCN(C3CCC(n4cc5cc(NC(=O)c6ccc7cc(C#N)cnn67)c(C(C)(C)O)cc5n4)CC3)CC2)C1 (stereo not drawn) [Example 426, 3-cyano-N-(2-((1r,4r)-4-(4-(1-(6-(2,6-dioxopiperidin-3-yl)-2-methylpyridin-3-yl)azetidin-3-yl)piperazin-1-yl)cyclohexyl)-6-(2-hydroxypropan-2-yl)-2H-indazol-5-yl)pyrrolo[1,2-b]pyridazine-7-carboxamide] | 12 |  |  | 5.5 | 95 | 95 |

Now those with a lower DC50 (IRAK4 [1]), led by results:

| DC50 (IRAK4 [1]) [nM] | Dmax (IRAK4 [1]) [%] | Dmax (IRAK4 [2]; [3]) [%] | DC50 (IRAK4 [2]) [nM] | IRAK4 degradtion with human serum assay Dmax (%) (IRAK4 [1]) | IRAK4 in Karpas-299 (24 h) Dmax (%) (IRAK4 [2]; [3]) | SMILES |
| --- | --- | --- | --- | --- | --- | --- |
| 8.6 | 98 | 97 | 1.4 |  |  | COC[C@H]1CN(C2CCN(c3ccc(C4CCC(=O)NC4=O)nc3C)CC2)CCN1[C@H]1CC[C@H](n2cc3cc(NC(=O)c4ccc5cc(C#N)cnn45)c(C(C)(C)O)cc3n2)CC1 (stereo partly drawn) [Example 415, 3-cyano-N-(2-((1R,4r)-4-((2R)-4-(1-(6-(2,6-dioxopiperidin-3-yl)-2-methylpyridin-3-yl)piperidin-4-yl)-2-(methoxymethyl)piperazin-1-yl)cyclohexyl)-6-(2-hydroxypropan-2-yl)-2H-indazol-5-yl)pyrrolo[1,2-b]pyridazine-7-carboxamide] |
| 4.5 | 95 | 95 | 0.9 |  |  | CC(C)(O)c1cc2nn([C@H]3CC[C@H](N4CCN(C5CCN(c6ccc7c(c6)CN(C6CCC(=O)NC6=O)C7=O)CC5)CC4)CC3)cc2cc1NC(=O)c1ccc2cc(C#N)cnn12 (stereo partly drawn) [Example 417, 3-cyano-N-(2-((1r,4r)-4-(4-(1-(2-(2,6-dioxopiperidin-3-yl)-1-oxoisoindolin-5-yl)piperidin-4-yl)piperazin-1-yl)cyclohexyl)-6-(2-hydroxypropan-2-yl)-2H-indazol-5-yl)pyrrolo[1,2-b]pyridazine-7-carboxamide] |
| 6.1 | 100 | 94 | 1.8 |  |  | COC[C@@H]1CN([C@H]2CC[C@H](n3cc4cc(NC(=O)c5ccc6cc(C#N)cnn56)c(C(C)(C)O)cc4n3)CC2)CCN1C1CCN(c2ccc(C3CCC(=O)NC3=O)nc2C)CC1 (stereo partly drawn) [Example 418, 3-cyano-N-(2-((1S,4r)-4-((3S)-4-(1-(6-(2,6-dioxopiperidin-3-yl)-2-methylpyridin-3-yl)piperidin-4-yl)-3-(methoxymethyl)piperazin-1-yl)cyclohexyl)-6-(2-hydroxypropan-2-yl)-2H-indazol-5-yl)pyrrolo[1,2-b]pyridazine-7-carboxamide] |
| 4 | 97 | 97 | 1.6 |  |  | Cc1nc(C2CCC(=O)NC2=O)ccc1N1CCC(N2CCN(C34CC(n5cc6cc(NC(=O)c7ccc8cc(C#N)cnn78)c(C(C)(C)O)cc6n5)(C3)C4)CC2)CC1 (stereo not drawn) [Example 419, 3-cyano-N-(2-(3-(4-(1-(6-(2,6-dioxopiperidin-3-yl)-2-methylpyridin-3-yl)piperidin-4-yl)piperazin-1-yl)bicyclo[1.1.1]pentan-1-yl)-6-(2-hydroxypropan-2-yl)-2H-indazol-5-yl)pyrrolo[1,2-b]pyridazine-7-carboxamide] |
| 5.2 | 97 | 97 | 2.1 |  |  | COC[C@H]1CN([C@H]2CC[C@H](n3cc4cc(NC(=O)c5ccc6cc(C#N)cnn56)c(C(C)(C)O)cc4n3)CC2)CCN1C1CCN(c2ccc(C3CCC(=O)NC3=O)nc2C)CC1 (stereo partly drawn) [Example 422, 3-cyano-N-(2-((1R,4r)-4-((3R)-4-(1-(6-(2,6-dioxopiperidin-3-yl)-2-methylpyridin-3-yl)piperidin-4-yl)-3-(methoxymethyl)piperazin-1-yl)cyclohexyl)-6-(2-hydroxypropan-2-yl)-2H-indazol-5-yl)pyrrolo[1,2-b]pyridazine-7-carboxamide] |
| 3 | 96 | 98 | 1.1 |  |  | COC[C@@H]1CN(C2CCN(c3ccc(C4CCC(=O)NC4=O)nc3C)CC2)CCN1[C@H]1CC[C@H](n2cc3cc(NC(=O)c4ccc5cc(C#N)cnn45)c(C(C)(C)O)cc3n2)CC1 (stereo partly drawn) [Example 423, 3-cyano-N-(2-((1S,4r)-4-((2S)-4-(1-(6-(2,6-dioxopiperidin-3-yl)-2-methylpyridin-3-yl)piperidin-4-yl)-2-(methoxymethyl)piperazin-1-yl)cyclohexyl)-6-(2-hydroxypropan-2-yl)-2H-indazol-5-yl)pyrrolo[1,2-b]pyridazine-7-carboxamide] |
